The values that follow are results of earlier work, collected in patent US9034614B2, “Method of preparing alkyl butyrate from fermented liquid using microorganisms” (priority 2010, dated 2015).

SMILES strings stand for the structures. Converted amounts (≈) assume the structure as drawn. Where two headings read alike, the source gives them in different places.

As for `CCCCOC(=O)CCC` [Butyl butyrate], the Solubility in water entry (stated in words) is “Insoluble”.
Consider `CCO` [Ethanol, reference compound], for which the Solubility in water result (stated in words) was “Miscible”.
As to `CCCC(=O)OCC` [Ethyl butyrate], the Solubility in water was 4900 µg/mL (≈ 42.2 mM).
